Patent US8906925B2, “Pyrido[4,3-B]indoles containing rigid moieties” (Medivation Technologies, Inc., priority 2008, dated 2014)
Values joined by “and” are separate entries in the source; they are usually repeats but may differ in a detail not shown here. Identical values can stand only once. Like-named read-outs stand apart in the source and are kept apart here.

Columns and labels:
[1] = molecular target: T1, human recombinant serotonin (5-Hydroxytryptamine) 5-HT2B receptor (Homo sapiens, UniProt P41595); test: Serotonin 5-HT2B radioligand binding ([3H]LSD); conditions: for inhibition at 0.1 µM: compound at 0.1 μM; for inhibition at 0.1 µM / inhibition at 1 µM: read-out: Inhibition of ligand binding, Serotonin 5-HT2B (percent inhibition of specific binding)
T1 construct: expressed in transfected cells; host or cells: Chinese hamster ovary (CHO-K1) cells
T1 sequence (P41595 whole entry): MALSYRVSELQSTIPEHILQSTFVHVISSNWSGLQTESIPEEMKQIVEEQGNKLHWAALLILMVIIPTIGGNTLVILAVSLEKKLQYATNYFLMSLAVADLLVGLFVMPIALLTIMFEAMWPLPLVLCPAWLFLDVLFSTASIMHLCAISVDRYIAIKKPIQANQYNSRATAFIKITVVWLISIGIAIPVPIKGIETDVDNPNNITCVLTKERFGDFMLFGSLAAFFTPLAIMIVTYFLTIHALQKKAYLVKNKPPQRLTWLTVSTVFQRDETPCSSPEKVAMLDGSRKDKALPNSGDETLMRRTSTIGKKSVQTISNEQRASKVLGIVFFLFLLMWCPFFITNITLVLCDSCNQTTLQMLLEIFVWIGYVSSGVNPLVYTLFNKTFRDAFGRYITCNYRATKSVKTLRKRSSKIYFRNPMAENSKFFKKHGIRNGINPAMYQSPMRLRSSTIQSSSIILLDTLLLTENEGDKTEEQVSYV
Description: Compounds of invention were incubated with 1.2 nM [^3H]Lysergic acid diethylamide (LSD) for 60 min. at 37° C. […] Receptor proteins were filtered and washed, the filters were then counted to determine [^3H]LSD specifically bound. Compounds were screened at 1 μM or lower, using 1% DMSO as vehicle. Compounds of the invention were tested in this biochemical assay and percent inhibition of specific binding was determined. Biochemical assay results are presented as the percent inhibition of specific binding in Table 10.

[2] = molecular target: T2, rat adrenergic α1A receptor (Rattus norvegicus, UniProt P43140); test: Adrenergic α1A radioligand binding ([3H]Prozosin); conditions: compound at 1 μM
T2 construct: from tissue; host or cells: Wistar rat submaxillary glands
T2 sequence (P43140 1-466): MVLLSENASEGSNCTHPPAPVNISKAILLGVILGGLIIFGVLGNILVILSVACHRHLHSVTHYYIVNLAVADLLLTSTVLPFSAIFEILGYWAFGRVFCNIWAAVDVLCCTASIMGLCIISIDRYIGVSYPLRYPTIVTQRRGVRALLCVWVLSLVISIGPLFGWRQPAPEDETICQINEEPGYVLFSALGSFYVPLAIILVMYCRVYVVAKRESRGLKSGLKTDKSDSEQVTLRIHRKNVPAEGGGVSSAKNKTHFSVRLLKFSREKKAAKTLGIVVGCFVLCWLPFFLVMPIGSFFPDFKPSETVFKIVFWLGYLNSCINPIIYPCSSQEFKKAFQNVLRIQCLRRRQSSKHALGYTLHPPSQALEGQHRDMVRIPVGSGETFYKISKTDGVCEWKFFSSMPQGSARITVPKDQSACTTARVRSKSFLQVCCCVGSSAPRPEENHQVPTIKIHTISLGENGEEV
Description: To evaluate in radioligand binding assays the activity of compounds of the invention, rat adrenergic α1A receptor obtained from Wistar Rat submaxillary glands (Michel, A. D. et al., Br. J. Pharmacol. 98:883, 1989) in a modified Tris-HCl buffer (50 mM Tris-HCl buffer, pH 7.4, 0.5 mM EDTA) was used. Compounds of the invention were incubated with 0.25 nM [^3H]Prozosin for 60 min. at 25° C. Non-specific binding was estimated in the presence of 10 μM phentolamine. Receptor proteins were filtered and washed, the filters were then counted to determine [^3H]Prozosin specifically bound. Compounds of the invention were screened at 1 μM or lower, using 1% DMSO as vehicle. Compounds of the invention were tested in this biochemical assay and percent inhibition of specific binding was determined.

[3] = molecular target: T3, human recombinant adrenergic α2C receptor (Homo sapiens, UniProt P18825); test: Adrenergic α2C radioligand binding ([3H]MK-912); conditions: compound at 1 μM
T3 construct: expressed in transfected cells; host or cells: insect Sf9 cells
T3 sequence (P18825 1-462): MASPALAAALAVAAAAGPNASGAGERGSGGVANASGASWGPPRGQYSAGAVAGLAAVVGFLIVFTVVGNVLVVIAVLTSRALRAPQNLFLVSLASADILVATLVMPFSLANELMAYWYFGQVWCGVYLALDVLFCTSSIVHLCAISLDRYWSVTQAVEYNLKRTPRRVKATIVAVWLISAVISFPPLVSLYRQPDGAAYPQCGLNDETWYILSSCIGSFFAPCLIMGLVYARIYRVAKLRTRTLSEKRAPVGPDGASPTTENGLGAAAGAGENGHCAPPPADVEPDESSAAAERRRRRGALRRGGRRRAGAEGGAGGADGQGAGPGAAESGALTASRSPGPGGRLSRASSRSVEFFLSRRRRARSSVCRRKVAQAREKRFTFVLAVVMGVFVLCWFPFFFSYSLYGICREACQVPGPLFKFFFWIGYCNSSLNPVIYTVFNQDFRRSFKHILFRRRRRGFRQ
Description: To evaluate in radioligand binding assays the activity of compounds of the invention, human recombinant adrenergic α2C receptor expressed in insect Sf9 cells (Uhlen S et al. J Pharmacol Exp Ther. 271:1558, 1994) in a modified Tris-HCl buffer (50 mM Tris-HCl, pH 7.4, 12.5 mM MgCl2, 2 mM EDTA) was used. Compounds of the invention were incubated with 1 nM [^3H]MK-912 for 60 min. at 25° C. Non-specific binding was estimated in the presence of […] WB-4101. Receptor proteins were filtered and washed, the filters were then counted to determine [^3H]MK-912 specifically bound. Compounds were screened at 1 μM or lower, using 1% DMSO as vehicle. Compounds of the invention were tested in this biochemical assay and percent inhibition of specific binding was determined.

[4] = tested on: rat central imidazoline I2 receptor; test: Central imidazoline I2 radioligand binding ([3H]Idazoxan)
Description: To evaluate in radioligand binding assays the activity of compounds of the invention, rat central imidazoline I2 receptor obtained from Wistar Rat cerebral cortex (Brown, C. M. et al., Br. J. Pharmacol. 99:803, 1990) in a modified Tris-HCl buffer (50 mM Tris-HCl buffer, pH 7.4, 0.5 mM EDTA) was used. Compounds of the invention were incubated with 2 nM [^3H]Idazoxan for 30 min. at 25° C. Non-specific binding was estimated in the presence of 1 μM Idazoxan. Receptor proteins were filtered and washed, the filters were then counted to determine [^3H]Idazoxan specifically bound. Compounds were screened at 1 μM or lower, using 1% DMSO as vehicle. Compounds of the invention were tested in this biochemical assay and percent inhibition of specific binding was determined.

[5] = molecular target: T4, human recombinant serotonin (5-Hydroxytryptamine) 5-HT5A receptor (Homo sapiens, UniProt P47898); test: Serotonin 5-HT5A radioligand binding ([3H]LSD)
T4 construct: expressed in transfected cells; host or cells: Chinese hamster ovary (CHO-K1) cells
T4 sequence (P47898 whole entry): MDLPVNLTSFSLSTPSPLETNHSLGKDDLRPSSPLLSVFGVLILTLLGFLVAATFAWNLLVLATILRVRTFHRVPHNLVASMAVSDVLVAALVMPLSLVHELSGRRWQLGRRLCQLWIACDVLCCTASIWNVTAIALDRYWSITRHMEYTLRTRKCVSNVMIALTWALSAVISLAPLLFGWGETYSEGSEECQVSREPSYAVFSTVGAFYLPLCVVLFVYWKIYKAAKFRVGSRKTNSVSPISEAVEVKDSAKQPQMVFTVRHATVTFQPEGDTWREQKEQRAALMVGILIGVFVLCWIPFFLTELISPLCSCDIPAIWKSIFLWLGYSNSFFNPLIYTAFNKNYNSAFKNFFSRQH
Description: Compounds of the invention are incubated with 1.7 nM [^3H]Lysergic acid diethylamide (LSD) for 60 min. at 37° C. […] Receptor proteins are filtered and washed, the filters are counted to determine [^3H]LSD specifically bound. Compounds are screened at 1 μM or lower, using 1% DMSO as vehicle. Compounds of the invention are tested in this biochemical assay and percent inhibition of specific binding is determined.

[6] = percent inhibition of specific binding, 1 µM
[7] = percent inhibition of specific binding, read-out: Inhibition of ligand binding, Adrenergic α1A
[8] = percent inhibition of specific binding, read-out: Inhibition of ligand binding, Adrenergic α2C
[9] = compound at 1 μM, read-out: Inhibition of ligand binding, Serotonin 5-HT5A (percent inhibition of specific binding)

| SMILES | inhibition at 0.1 µM [1] [%] | Inhibition of ligand binding, Serotonin 5-HT2B (percent inhibition of specific binding) ([1]; compound at 1 μM, 1 µM) [%] | inhibition at 1 µM ([1]; compound at 1 μM) [%] | Inhibition of ligand binding, Adrenergic α1A [2, 6] [%] | inhibition at 1 µM [2, 7] [%] | Inhibition of ligand binding, Adrenergic α2C [3, 6] [%] | inhibition at 1 µM [3, 8] [%] | Imidazoline I2 Central (1 μM), percent inhibition of specific binding ([4]; 1 µM) | inhibition at 0.1 µM ([5]; compound at 0.1 μM, read-out: Inhibition of ligand binding, Serotonin 5-HT5A (percent inhibition of specific binding)) [%] | Inhibition of ligand binding, Serotonin 5-HT5A (percent inhibition of specific binding) ([5]; compound at 1 μM, 1 µM) [%] | inhibition at 1 µM [5, 9] [%] | inhibition at 1 µM ([2]; read-out: Inhibition of ligand binding, Adrenergic α1A (percent inhibition of specific binding)) [%] | inhibition at 1 µM ([3]; 1 nM [3H]MK-912, read-out: Inhibition of ligand binding, Adrenergic α2C (percent inhibition of specific binding)) [%] | Imidazoline I2 Central (1 μM), percent inhibition of specific binding [4] [%] |
| --- | --- | --- | --- | --- | --- | --- | --- | --- | --- | --- | --- | --- | --- | --- |
| Cc1ccc(C(O)Cn2c3c(c4cc(C)ccc42)CN(C)CC3)cc1 (racemic) [Compound 43, racemic-2-(1,2,3,4-tetrahydro-2,8-dimethylpyrido[4,3-b]indol-5-yl)-1-p-tolylethanol] | -2 | 77 | 70 | 96 | 90 | 94 | 100 | 76% and 79% | 19 | 73 | 61 |  |  |  |
| Cc1ccc2c(c1)c1c(n2CC#Cc2ccccn2)CCN(C)C1 [Compound No. 500, 2,3,4,5-tetrahydro-2,8-dimethyl-5-(3-(pyridin-2-yl)prop-2-ynyl)-1H-pyrido[4,3-b]indole] |  |  | 34 |  |  |  |  |  |  |  | 23 | 27 | 43 | 54 |
| Cc1ccc2[nH]c3c(c2c1)CN(C)CC3 [Compound 3, 2,8-Dimethyl-2,3,4,5-tetrahydro-1H-pyrido[4,3-b]indole] |  |  |  |  |  |  |  |  |  |  |  |  |  | 58 |
| C/C(=C\n1c2c(c3cc(Cl)ccc31)CN(C)CC2)c1ccc(F)cc1 [Compound 83, (E)-8-chloro-5-(2-(4-fluorophenyl)prop-1-enyl)-2,3,4,5-tetrahydro-2-methyl-1H-pyrido[4,3-b]indole] |  |  | 88 |  | 90 |  | 99 |  |  |  | 97 |  |  | 85 |
| CCN1CCc2c(c3ccccc3n2CC(O)c2ccc(C)cc2)C1 (racemic) [Compound 44, racemic-2-(2-ethyl-1,2,3,4-tetrahydropyrido[4,3-b]indol-5-yl)-1-p-tolylethanol] |  |  | 11 |  | 39 |  | 35 |  |  |  | 0 |  |  | 46 |
| Cc1ccc(C(O)Cn2c3c(c4ccccc42)CN(C)CC3)cc1 (racemic) [Compound 53, racemic-2-(1,2,3,4-tetrahydro-2-methylpyrido[4,3-b]indol-5-yl)-1-p-tolylethanol] |  |  | 23 |  | 74 |  | 82 |  |  |  | 26 |  |  | 78 |
| CCN1CCc2c(c3cc(C)ccc3n2CC(O)c2ccc(C)cc2)C1 (racemic) [Compound 51, racemic-2-(2-ethyl-1,2,3,4-tetrahydro-8-methylpyrido[4,3-b]indol-5-yl)-1-p-tolylethanol] | 12 |  | 32 |  | 86 |  | 92 |  |  |  | 27 |  |  | 79 |
